Consider twelve compounds from patent US20200216439A1, “HETERO-1,5,6,7-TETRAHYDRO-4H-INDOL-4-ONES” (BAYER PHARMA AKTIENGESELLSCHAFT, priority 2015, published 2020).

As a reminder, the IC50 is the point on the concentration scale where inhibition reaches its midpoint.

T1 sequence (O43683 704-1085): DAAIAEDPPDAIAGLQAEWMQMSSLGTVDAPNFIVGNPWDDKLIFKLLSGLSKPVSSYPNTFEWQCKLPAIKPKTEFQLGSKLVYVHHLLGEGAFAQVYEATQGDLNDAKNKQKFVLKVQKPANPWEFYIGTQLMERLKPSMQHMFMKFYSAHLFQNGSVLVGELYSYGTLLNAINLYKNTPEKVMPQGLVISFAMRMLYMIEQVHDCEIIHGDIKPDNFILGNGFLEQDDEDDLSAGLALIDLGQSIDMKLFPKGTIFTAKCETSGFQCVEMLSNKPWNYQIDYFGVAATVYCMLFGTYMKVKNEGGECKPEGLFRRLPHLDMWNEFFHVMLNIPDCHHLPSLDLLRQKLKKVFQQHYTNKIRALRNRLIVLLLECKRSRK

This experiment concerns the target T1, catalytic domain of human Bub1 (amino acids 704-1085) (Homo sapiens, UniProt O43683).
T1 construct: catalytic domain of human Bub1 (amino acids 704-1085); His6 (N); made in house; host or cells: Hi5 insect cells
In words: Bub1 kinase assay (TR-FRET). The class given is biochemical. Particulars: TR-FRET; ATP 10 μM, peptide substrate 1 μM; 60 min at 22° C.; average or median if tested more than once; read-out: Inhibition of Bub1 kinase IC50. Put shortly: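 Human Bub1 catalytic domain (704-1085, His6-tagged, Hi5-expressed, ~200 ng/mL) preincubated with compound 15 min at 22 °C, then reacted 60 min at 22 °C with 10 μM ATP and 1 μM biotinylated peptide substrate, pH 7.5. EDTA stop; TR-FRET 665/620 ratio; IC50 from 4-parameter fit, 11 concentrations in duplicate.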
On the technique in general: In TR-FRET formats the signal depends on donor and acceptor labels being close together.
As for `CC(=O)Nc1cc(-c2[nH]c3c(c2Nc2ccccc2)C(=O)CN(C(=O)N2CCCCC2)C3)ccn1` [Example 166, N-{4-[3-Anilino-4-oxo-6-(piperidin-1-ylcarbonyl)-4,5,6,7-tetrahydro-1H-pyrrolo[2,3-c]pyridin-2-yl]pyridin-2-yl}acetamide], the IC50 amounted to 3 nM. Then `O=C1CN(C(=O)N2CCOCC2)Cc2[nH]c(-c3ccncc3)c(Nc3ccccc3)c21` [Example 94, 6-(Morpholin-4-ylcarbonyl)-3-(phenylamino)-2-(pyridin-4-yl)-1,5,6,7-tetrahydro-4H-pyrrolo[2,3-c]pyridin-4-one], with 3 nM. To `CCC(=O)N1CC(=O)c2c([nH]c(-c3ccnc(NC(=O)[C@@H]4C[C@@H]4F)c3)c2Nc2ccccc2)C1` [Example 198, (1S,2S)-2-Fluoro-N-4-[4-oxo-3-(phenylamino)-6-propanoyl-4,5,6,7-tetrahydro-1H-pyrrolo[2,3-c]pyridin-2-yl]pyridin-2-ylcyclopropanecarboxamide] belongs 3 nM. Then `CC(=O)Nc1cc(-c2[nH]c3c(c2Nc2ccccc2)C(=O)CN(C(=O)c2cnsc2)C3)ccn1` [Example 193, N-{4-[3-Anilino-4-oxo-6-(1,2-thiazol-4-ylcarbonyl)-4,5,6,7-tetrahydro-1H-pyrrolo[2,3-c]pyridin-2-yl]pyridin-2-yl}acetamide], with 19 nM; and `O=C(Nc1cc(-c2[nH]c3c(c2Nc2ccccc2)C(=O)CNC3)ccn1)c1ccc(F)cc1` [Example 134, N-[4-(3-anilino-4-oxo-4,5,6,7-tetrahydro-1H-pyrrolo[2,3-c]pyridin-2-yl)pyridin-2-yl]-4-fluorobenzamide], with 36 nM; and `COc1ccc(C(=O)Nc2cc(-c3[nH]c4c(c3Nc3ccccc3)C(=O)CN(C(=O)OC(C)(C)C)C4)ccn2)c(C)c1` [Example 266, tert-Butyl 2-2-[(4-methoxy-2-methylbenzoyl)amino]pyridin-4-yl-4-oxo-3-(phenylamino)-1,4,5,7-tetrahydro-6H-pyrrolo[2,3-c]pyridine-6-carboxylate], with 72 nM. Consider `CC(C)(C)OC(=O)N1CC(=O)c2c([nH]c(-c3ccnc(NC(=O)c4ccc(F)cc4)c3)c2Nc2ccccc2)C1` [Example 133, tert-Butyl 3-anilino-2-{2-[(4-fluorobenzoyl)amino]pyridin-4-yl}-4-oxo-1,4,5,7-tetrahydro-6H-pyrrolo[2,3-c]pyridine-6-carboxylate], for which the IC50 was determined as 28 nM.

On to `Cn1cnc(S(=O)(=O)N2CC(=O)c3c([nH]c(-c4ccncc4)c3Nc3ccccc3)C2)c1` [Example 73, 6-[(1-Methyl-1H-imidazol-4-yl)sulfonyl]-3-(phenylamino)-2-(pyridin-4-yl)-1,5,6,7-tetrahydro-4H-pyrrolo[2,3-c]pyridin-4-one], for which the 50% inhibitory concentration (IC50) is 8 nM. For the compound `CC(C)(C)OC(=O)N1CC(=O)c2c([nH]c(-c3ccncc3OCC3CC3)c2Nc2ccccc2)C1` [Example 223, tert-Butyl 3-anilino-2-[3-(cyclopropylmethoxy)pyridin-4-yl]-4-oxo-1,4,5,7-tetrahydro-6H-pyrrolo[2,3-c]pyridine-6-carboxylate], the IC50 was 14 nM.

For `Cn1cnc(C(=O)N2CC(=O)c3c([nH]c(-c4ccncc4)c3Nc3ccccc3)C2)c1` [Example 60, 6-[(1-Methyl-1H-imidazol-4-yl)carbonyl]-3-(phenylamino)-2-(pyridin-4-yl)-1,5,6,7-tetrahydro-4H-pyrrolo[2,3-c]pyridin-4-one], the IC50 is 67 nM. To `COc1ccc(C(=O)Nc2cc(-c3[nH]c4c(c3Nc3ccccc3)C(=O)CNC4)ccn2)cc1F` [Example 284, 3-Fluoro-4-methoxy-N-4-[4-oxo-3-(phenylamino)-4,5,6,7-tetrahydro-1H-pyrrolo[2,3-c]pyridin-2-yl]pyridin-2-ylbenzamide] belongs 52 nM; to `C[S+]([O-])CC(=O)Nc1cc(-c2[nH]c3c(c2Nc2ccccc2)C(=O)COC3)ccn1` (stereo not drawn) [Example 47, 2-(Methylsulfinyl)-N-{4-[4-oxo-3-(phenylamino)-1,4,5,7-tetrahydropyrano[3,4-b]pyrrol-2-yl]pyridin-2-yl}acetamide], 341 nM.
